Patent US10220025B1, “Self-emulsifying formulation of CARP-1 functional mimetics” (Florida A&M University, priority 2016, dated 2019)
Where two headings read alike, the source gives them in different places.

Tests used:
[1] = test system: MDA-MB-468 TNBC cells, wild type; assay: MTT viability assay, parental MDA-MB-468; assay type: cell-based, human; details: Homo sapiens, MDA-MB-468; 72 h; Wild type
Protocol: (§2) In vitro inhibition of cell growth was assessed by MTT (3-[4, 5-dimethyltiazol-2-yl]-2.5-diphenyl tetrazolium bromide) reagent. Cells (5×10^3) were seeded in a 96-well culture plate and subsequently treated with respective agents at different concentrations as mentioned. Control cells were treated with 0.1% DMSO in culture medium. After treatment, the cells were incubated with 1 mg/ml of MTT reagent at 37° C. for 2-4 hours and then MTT was removed and 50 μL of DMSO was added, followed by colorimetric analysis using a multi-label plate reader at 560 nm (Victor3; PerkinElmer, Wellesley, Mass., USA).

[2] = test system: Adriamycin-resistant (ADR-R) MDA-MB-468 sublines; assay: MTT viability assay, ADR-resistant MDA-MB-468 sublines; assay type: cell-based, human
Protocol: (§1) Human TNBC MDA-MB-468 and MDA-MB-231, and mouse TNBC 4T1 cells were cultured in the chronic presence (>10 months) of Doxorubicin. The parental, wild-type cells were initially treated with 200 nM Doxorubicin for 2-3 weeks, followed by escalation to 400 nM, 1 μM, and 2 μM doses over a period of 3-4 weeks for each dose till resistance developed and the cells became well adapted to growth in […] of Doxorubicin for their routine culture. In the case of Cisplatin however, the human TNBC MDA-MB-468 and MDA-MB-231 were initially cultured in continuous presence of 1 μM Cisplatin for 3-4 weeks, and the dose was escalated to 1.5 μM and 3 μM over periods of 3-4 weeks for each dose till resistance developed and cells became adapted to routine culture in 3 μM dose. Subsequent, routine maintenance of the resistant cells in the presence of the respective drug was continued and multiple, resistant sublines for each of the TNBC cells were isolated and characterized for their growth inhibitory (GI)50 dose of respective therapeutic by the MTT-based viability assays as below.

[3] = test system: MDA-MB-231 TNBC cells, wild type; assay: MTT viability assay, parental MDA-MB-231; assay type: cell-based, human; details: Homo sapiens, MDA-MB-231; 72 h; Wild type
Protocol: as §2

[4] = test system: Adriamycin-resistant (ADR-R) MDA-MB-231 sublines; assay: MTT viability assay, ADR-resistant MDA-MB-231 sublines; assay type: cell-based; details: Homo sapiens, 72 h, ADR-R Clones 1-6
Protocol: as §1

[5] = test system: 4T1 TNBC cells, wild type; assay: MTT viability assay, parental 4T1; assay type: cell-based, mouse; details: Mus musculus; 72 h; Wild type
Protocol: as §2

[6] = test system: Adriamycin-resistant (ADR-R) 4T1 sublines; assay: MTT viability assay, ADR-resistant 4T1 sublines; assay type: cell-based; details: Mus musculus; 72 h; ADR-R Clones 1-6
Protocol: Human TNBC MDA-MB-468 and MDA-MB-231, and mouse TNBC 4T1 cells were cultured in the chronic presence (>10 months) of Doxorubicin. The parental, wild-type cells were initially treated with 200 nM Doxorubicin for 2-3 weeks, followed by escalation to 400 nM, 1 μM, and 2 μM doses over a period of 3-4 weeks for each dose till resistance developed and the cells became well adapted to growth in 1 μM dose of Doxorubicin for their routine culture. […] Subsequent, routine maintenance of the resistant cells in the presence of the respective drug was continued and multiple, resistant sublines for each of the TNBC cells were isolated and characterized for their growth inhibitory (GI)50 dose of respective therapeutic by the MTT-based viability assays as below.
as §2

TNBC cells = assay: MTT viability assay, parental TNBC cells (lines not singled out); assay type: cell-based
Protocol: as §2

[7] = test system: drug-resistant TNBC cells; assay: MTT viability assay, drug-resistant TNBC sublines (not singled out); assay type: cell-based; details: read-out: GI50 dose, doxorubicin-resistant TNBC cells
Protocol: as §1

[8] = test system: CSC-enriched populations from xenografts of parental and ADR-resistant MDA-MB-231 TNBC cells; assay: MTT viability of tumor-derived CSC-enriched cells; assay type: cell-based, human; details: dose-dependent; FIG. 15C
Protocol: The CSC-enriched cells were then treated with ADR, CFM-4.16, or a combination of both for noted dose and time. The cell viabilities were determined by MTT-based assay as in FIGS. 3A-3C, and plotted relative to the MTT values for the respective untreated controls. The histogram columns in panels B and C represent means of three and four independent experiments, respectively; bars, S.E. α, αα, β, ββ, ^*,**,#,##p=<0.03 relative to respective cells treated with ADR+CFM-4.16.
The TNBC cells were obtained from tumors derived from parental and drug-resistant cells or from a two-dimensional culture plate with ˜70-80% confluence. The cells were washed twice in 1×PBS and trypsinized following established protocols. […]
It was next clarified whether and to the extent CFM-4.16 was able to interfere with growth of mammospheres derived from parental and drug-resistant TNBC-cells. […] The growing mammosphere cultures were then exposed to CFM-4.16, and the viabilities of untreated and treated cultures were determined by an MTT-based assay. […]

GI50 ([2]; Homo sapiens, MDA-MB-468, 72 h, ADR-R Clones 1-6): ~10000 nM
GI50 [4]: > 10000 nM
GI50 [6]: > 10000 nM
Structure (SMILES): COc1cccc2c1C(=O)c1c(O)c3c(c(O)c1C2=O)C[C@@](O)(C(=O)CO)C[C@@H]3O[C@H]1C[C@H](N)[C@H](O)[C@H](C)O1 [Adriamycin, Doxorubicin, reference compound]
GI50 [1]: ~20 nM
GI50 dose higher than wild-type, parental counterparts ([2]; ADR-resistant MDA-MB-468 vs parental): ≥ 500 fold
GI50 [3]: < 100 nM
GI50 [5]: ~100 nM
GI50 (TNBC cells; 72 h treatment period, read-out: GI50 doses, both the parental TNBC cell lines): < 100 nM
GI50 (TNBC cells; read-out: GI50 dose, parental cells): 20 to 100 nM
GI50 [7]: ≥ 10000 nM
viabilities of CSC enriched TNBC cells vs untreated [8]: significant loss of viabilities
